Assay results published in patent US9809750B2, “Liquid crystal composition” (Nanoegg Research Laboratories, Inc., priority 2009, dated 2017).
Values belong to the compound of their own block, whether it stands above or below them.

Procedure: Then, SH556 (phenyl-modified silicone oil) was added to this liquid crystal composition to prepare the liquid crystal composition of the present invention.
(§1) The solubilized concentration (saturated concentration of solubilization) of oil was measured by sample appearance, for example, cloudiness or phase separation.
Then, a mixed oil of SH556 and squalane or a mixed oil of KF50-100CS and squalane was added to the mixed surfactant aqueous solution, thereby preparing the liquid crystal compositions of the present invention. The weight ratio of a phenyl-modified silicone oil (SH556 or KF50-100CS) and squalane is 1:1 in each mixed oil. Moreover, as a comparative example, squalane alone was added to the mixed surfactant aqueous solution to prepare a liquid crystal composition for the comparative example.
The solubilized concentration of oil (mixed oil or squalane) in each liquid crystal composition was evaluated. The solubilized concentration (saturated concentration of solubilization) of oil was measured by sample appearance, for example, cloudiness or phase separation.
Then, a mixed oil of SH556 and squalane was added to each mixed surfactant aqueous solution, thereby preparing the liquid crystal compositions of the present invention. The weight ratio of SH556 and squalane is 1:1 in the mixed oil. Moreover, as comparative examples, squalane alone was added to the mixed surfactant aqueous solutions to prepare liquid crystal compositions for the comparative examples.
(§2) The solubilized concentration of oil (a mixed oil of SH556 and squalane or squalane) in each liquid crystal composition was evaluated. The solubilized concentration (saturated concentration of solubilization) of oil was measured by sample appearance, for example, cloudiness or phase separation.
Then, a mixed oil of SH556 and α-lipoic acid or a mixed oil of SH556 and oleic acid was added to the mixed surfactant aqueous solution, thereby preparing the liquid crystal compositions of the present invention. The weight ratio of SH556 and a fatty acid (α-lipoic acid or oleic acid) is 1:1 in each mixed oil.
as §2, with “α-lipoic acid, a mixed oil of SH556 and oleic acid, α-lipoic acid” for “squalane”, “oleic acid)” for “squalane)”
as §1

solubilized concentration of cetyl isooctanoate: up to 12.96 % by weight
Compound: CCCCCCCCCCCCCCCCOC(=O)CCCCC(C)C [cetyl isooctanoate]

solubilized concentration of oleic acid: up to 11.7 % by weight
Compound: CCCCCCCC/C=C\CCCCCCCC(=O)O [oleic acid]

solubilized concentration of oil: could not be dissolved | solubilized concentration of squalane: up to 3.125 % by weight
Compound: CC(C)CCCC(C)CCCC(C)CCCCC(C)CCCC(C)CCCC(C)C (stereo not drawn) [squalane]

solubilized concentration of oil: at least 25 % by weight
Compound: phenyl trimethicone [SH556]
effect of enhancing solubility of squalane: showed the effect of enhancing solubility of squalane
